Results: patent publication US20030216293A1, “Use of composition comprising at least one substance within the group GnRH-analogues for treatment of obsessive -compulsive disorder (OCD)” (priority 1998, published 2003)

Legend:
[1] = system: patient with a severe form of OCD; experiment: Case study: treatment of a patient with a severe form of OCD; format: in vivo, human
Experimental: The GnRH-analogue triptorelin is available in a pharmaceutical preparation (Decapeptyl® Depot). In the use of this preparation, an injection is administered containing triptorelin embonate in a dose corresponding to 3.75 mg triptorelin. Injections with this dose are given intramuscularly. They should be repeated every fourth week from the first injection.
A detailed case study of the treatment of a patient with a severe form of OCD is disclosed in the following, as supporting evidence of the effect of the method.
A then person was referred to a psychiatric specialist clinic from another qualified psychiatrist for evaluation and treatment of a severe condition of OCD.
The situation when the patient came to the clinic was that they had sickness pension since more than ten years. They lived alone in a small apartment which they hardly ever left. Obsessions and compulsive rituals occupied most of their time. They repeated against their will meaningless strings of words silently during several hours every day. They felt they had to read the newspaper according to certain ritual patterns; if they did anything wrong, they had to start again from the beginning. Sometimes, it took them the whole day to read the newspaper. […] Among other things, they placed their books so that the covers were strictly oriented along north-south lines. Their contacts with other persons were highly restraint and mainly limited to some relatives.
The clinical diagnosis was that they suffered from a very serious form of OCD. They were also found to be intelligent without any signs of any other mental illness or personality disorder. Thus, it was a clearly defined case of OCD.
During long periods of time the patient had been treated with the drugs which presently are considered to have the best effect against OCD. In the treatment of the patient they had also been given supportive psychotherapy.
In order to overcome this, treatment with the long-acting GnRH-analogue triptorelin (Decapeptyl® Depot) was given every fourth week as deep intramuscular depot injections with a dose corresponding to 3.75 mg triptorelin in each injection.

[2] = system: symptoms of androgenic hyperactivity; experiment: Case study: treatment against the patient's symptoms of androgenic hyperactivity; format: in vivo, human; settings: one patient (male pattern baldness, sebaceous skin, acne, sexual drive)
Experimental: An endocrinological investigation was performed, based upon their symptoms of androgenic hyperactivity.

[3] = one patient, 3.75 mg i.m. depot every fourth week, after two plus another two months

SMILES	effect on OCD ([1]; one patient, given as anti-androgenic treatment)	improvement of OCD on previous treatment ([1]; same patient, treated before triptorelin)	effect on symptoms of androgenic hyperactivity [2]	OCD-symptoms, initial phase of treatment ([1]; one patient, 3.75 mg deep intramuscular depot injection every fourth week, initially)	patient's condition after two months treatment ([1]; one patient, 3.75 mg i.m. depot every fourth week, after two months)	obsessive thoughts after another two months [1, 3]	patient's condition after another two months [1, 3]	clinical outcome of very severe OCD ([1]; one patient, after three months of treatment)
CC(=O)O[C@]1(C(C)=O)CC[C@H]2[C@@H]3C=C(Cl)C4=CC(=O)[C@@H]5C[C@@H]5[C@]4(C)[C@H]3CC[C@@]21C [cyproterone acetate]	without any obvious effect	without any major improvement	without any significant effects					
CC(C)C[C@H](NC(=O)[C@@H](Cc1c[nH]c2ccccc12)NC(=O)[C@H](Cc1ccc(O)cc1)NC(=O)[C@H](CO)NC(=O)[C@H](Cc1c[nH]c2ccccc12)NC(=O)[C@H](Cc1c[nH]cn1)NC(=O)[C@@H]1CCC(=O)N1)C(=O)N[C@@H](CCCNC(=N)N)C(=O)N1CCC[C@H]1C(=O)NCC(N)=O [triptorelin]				accentuation of the patients OCD-symptoms	began to feel better	all obsessive thoughts had disappeared	dramatically better	substantially recovered
